Assays:
Assay in all cases: KINOMEscan
Type in all cases: binding
Details in all cases: read-out: % control activity remaining
[1] = molecular target: T1, ABL1(F317L)-nonphosphorylated (Homo sapiens, UniProt P00519, F317L)
T1 construct: purchased Eurofins DiscoverX KINOMEscan

[2] = molecular target: T2, ABL1(H396P)-nonphosphorylated (Homo sapiens, UniProt P00519, H396P)
T2 construct: purchased Eurofins DiscoverX KINOMEscan

[3] = molecular target: T3, CLK1 (Homo sapiens, UniProt P49759)
T3 construct: purchased Eurofins DiscoverX KINOMEscan

[4] = molecular target: T4, DLK (Homo sapiens, UniProt Q12852)
T4 construct: purchased Eurofins DiscoverX KINOMEscan
T4 sequence (Q12852 1-859): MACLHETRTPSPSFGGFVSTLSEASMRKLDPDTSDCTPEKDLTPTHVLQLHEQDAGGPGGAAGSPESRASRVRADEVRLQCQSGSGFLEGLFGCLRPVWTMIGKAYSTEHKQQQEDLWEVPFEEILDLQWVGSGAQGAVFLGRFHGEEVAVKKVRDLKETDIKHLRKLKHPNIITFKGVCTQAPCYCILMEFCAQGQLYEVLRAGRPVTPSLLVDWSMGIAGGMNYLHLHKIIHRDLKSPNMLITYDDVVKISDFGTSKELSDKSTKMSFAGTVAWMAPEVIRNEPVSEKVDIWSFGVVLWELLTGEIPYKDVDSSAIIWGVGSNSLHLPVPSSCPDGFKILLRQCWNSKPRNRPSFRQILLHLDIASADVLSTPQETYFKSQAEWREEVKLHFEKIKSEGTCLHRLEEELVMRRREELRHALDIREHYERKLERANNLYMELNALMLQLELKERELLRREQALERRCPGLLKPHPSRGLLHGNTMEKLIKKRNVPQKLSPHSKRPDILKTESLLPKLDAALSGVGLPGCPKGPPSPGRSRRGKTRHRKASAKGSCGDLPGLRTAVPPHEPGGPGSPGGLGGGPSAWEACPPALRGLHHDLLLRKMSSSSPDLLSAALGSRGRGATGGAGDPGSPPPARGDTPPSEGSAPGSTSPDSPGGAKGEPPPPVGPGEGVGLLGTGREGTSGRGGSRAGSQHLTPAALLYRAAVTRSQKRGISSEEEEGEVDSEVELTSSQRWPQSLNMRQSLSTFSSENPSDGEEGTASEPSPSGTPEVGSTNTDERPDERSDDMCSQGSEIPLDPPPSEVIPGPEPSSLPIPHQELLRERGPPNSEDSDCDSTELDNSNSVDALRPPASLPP

[5] = molecular target: T5, EIF2AK1 (Homo sapiens, UniProt Q9BQI3)
T5 construct: purchased Eurofins DiscoverX KINOMEscan

[6] = molecular target: T6, MST2 (Homo sapiens, UniProt Q13188)
T6 construct: purchased Eurofins DiscoverX KINOMEscan
T6 sequence (Q13188 1-491): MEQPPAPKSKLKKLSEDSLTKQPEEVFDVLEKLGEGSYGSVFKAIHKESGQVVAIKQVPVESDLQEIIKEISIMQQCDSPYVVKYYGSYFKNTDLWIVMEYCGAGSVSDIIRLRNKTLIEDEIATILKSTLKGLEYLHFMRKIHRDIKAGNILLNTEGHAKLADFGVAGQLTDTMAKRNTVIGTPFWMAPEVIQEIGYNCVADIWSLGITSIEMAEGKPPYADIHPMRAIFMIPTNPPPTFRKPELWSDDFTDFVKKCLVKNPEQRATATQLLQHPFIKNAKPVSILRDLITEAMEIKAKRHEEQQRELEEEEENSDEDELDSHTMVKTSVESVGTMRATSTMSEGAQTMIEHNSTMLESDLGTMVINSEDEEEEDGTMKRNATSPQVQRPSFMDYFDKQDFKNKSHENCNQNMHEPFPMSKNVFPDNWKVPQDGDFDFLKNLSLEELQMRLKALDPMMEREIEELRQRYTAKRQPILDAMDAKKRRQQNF

[7] = molecular target: T7, NDR1 (Homo sapiens, UniProt Q15208)
T7 construct: purchased Eurofins DiscoverX KINOMEscan

[8] = molecular target: T8, ROCK2 (Homo sapiens, UniProt O75116)
T8 construct: purchased Eurofins DiscoverX KINOMEscan

[9] = molecular target: T9, SGK3 (Homo sapiens, UniProt Q96BR1)
T9 construct: purchased Eurofins DiscoverX KINOMEscan
T9 sequence (Q96BR1 1-496): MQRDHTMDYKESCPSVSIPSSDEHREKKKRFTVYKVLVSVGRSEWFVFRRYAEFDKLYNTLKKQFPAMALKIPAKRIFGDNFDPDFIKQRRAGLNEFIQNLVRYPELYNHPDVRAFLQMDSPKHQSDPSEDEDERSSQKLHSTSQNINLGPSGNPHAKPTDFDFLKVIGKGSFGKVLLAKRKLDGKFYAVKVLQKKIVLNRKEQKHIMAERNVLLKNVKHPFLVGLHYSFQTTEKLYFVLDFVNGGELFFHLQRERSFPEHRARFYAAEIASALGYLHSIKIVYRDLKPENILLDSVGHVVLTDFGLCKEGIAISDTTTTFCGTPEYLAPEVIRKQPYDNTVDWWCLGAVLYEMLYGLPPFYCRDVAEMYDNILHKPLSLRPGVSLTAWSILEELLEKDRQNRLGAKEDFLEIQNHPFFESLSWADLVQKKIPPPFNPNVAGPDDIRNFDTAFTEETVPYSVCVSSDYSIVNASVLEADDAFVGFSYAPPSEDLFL

[10] = molecular target: T10, WEE1 (Homo sapiens, UniProt P30291)
T10 construct: purchased Eurofins DiscoverX KINOMEscan
T10 sequence (P30291 whole entry): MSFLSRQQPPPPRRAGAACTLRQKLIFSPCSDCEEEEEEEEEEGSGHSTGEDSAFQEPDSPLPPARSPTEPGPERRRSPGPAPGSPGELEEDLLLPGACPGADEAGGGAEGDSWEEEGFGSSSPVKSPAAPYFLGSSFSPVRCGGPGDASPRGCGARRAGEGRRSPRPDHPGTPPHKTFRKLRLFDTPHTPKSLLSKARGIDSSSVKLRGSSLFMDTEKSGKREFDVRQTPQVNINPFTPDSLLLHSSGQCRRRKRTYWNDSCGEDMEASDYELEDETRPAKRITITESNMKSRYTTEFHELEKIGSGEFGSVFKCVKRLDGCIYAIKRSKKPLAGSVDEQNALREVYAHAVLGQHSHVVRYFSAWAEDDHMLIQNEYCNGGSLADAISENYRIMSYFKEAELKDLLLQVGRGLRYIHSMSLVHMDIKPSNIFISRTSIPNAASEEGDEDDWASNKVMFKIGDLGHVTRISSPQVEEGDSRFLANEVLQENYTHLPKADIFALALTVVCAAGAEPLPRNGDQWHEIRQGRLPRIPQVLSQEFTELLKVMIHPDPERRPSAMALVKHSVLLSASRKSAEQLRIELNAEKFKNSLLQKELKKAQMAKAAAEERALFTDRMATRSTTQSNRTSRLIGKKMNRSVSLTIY

T8 sequence (O75116 whole entry): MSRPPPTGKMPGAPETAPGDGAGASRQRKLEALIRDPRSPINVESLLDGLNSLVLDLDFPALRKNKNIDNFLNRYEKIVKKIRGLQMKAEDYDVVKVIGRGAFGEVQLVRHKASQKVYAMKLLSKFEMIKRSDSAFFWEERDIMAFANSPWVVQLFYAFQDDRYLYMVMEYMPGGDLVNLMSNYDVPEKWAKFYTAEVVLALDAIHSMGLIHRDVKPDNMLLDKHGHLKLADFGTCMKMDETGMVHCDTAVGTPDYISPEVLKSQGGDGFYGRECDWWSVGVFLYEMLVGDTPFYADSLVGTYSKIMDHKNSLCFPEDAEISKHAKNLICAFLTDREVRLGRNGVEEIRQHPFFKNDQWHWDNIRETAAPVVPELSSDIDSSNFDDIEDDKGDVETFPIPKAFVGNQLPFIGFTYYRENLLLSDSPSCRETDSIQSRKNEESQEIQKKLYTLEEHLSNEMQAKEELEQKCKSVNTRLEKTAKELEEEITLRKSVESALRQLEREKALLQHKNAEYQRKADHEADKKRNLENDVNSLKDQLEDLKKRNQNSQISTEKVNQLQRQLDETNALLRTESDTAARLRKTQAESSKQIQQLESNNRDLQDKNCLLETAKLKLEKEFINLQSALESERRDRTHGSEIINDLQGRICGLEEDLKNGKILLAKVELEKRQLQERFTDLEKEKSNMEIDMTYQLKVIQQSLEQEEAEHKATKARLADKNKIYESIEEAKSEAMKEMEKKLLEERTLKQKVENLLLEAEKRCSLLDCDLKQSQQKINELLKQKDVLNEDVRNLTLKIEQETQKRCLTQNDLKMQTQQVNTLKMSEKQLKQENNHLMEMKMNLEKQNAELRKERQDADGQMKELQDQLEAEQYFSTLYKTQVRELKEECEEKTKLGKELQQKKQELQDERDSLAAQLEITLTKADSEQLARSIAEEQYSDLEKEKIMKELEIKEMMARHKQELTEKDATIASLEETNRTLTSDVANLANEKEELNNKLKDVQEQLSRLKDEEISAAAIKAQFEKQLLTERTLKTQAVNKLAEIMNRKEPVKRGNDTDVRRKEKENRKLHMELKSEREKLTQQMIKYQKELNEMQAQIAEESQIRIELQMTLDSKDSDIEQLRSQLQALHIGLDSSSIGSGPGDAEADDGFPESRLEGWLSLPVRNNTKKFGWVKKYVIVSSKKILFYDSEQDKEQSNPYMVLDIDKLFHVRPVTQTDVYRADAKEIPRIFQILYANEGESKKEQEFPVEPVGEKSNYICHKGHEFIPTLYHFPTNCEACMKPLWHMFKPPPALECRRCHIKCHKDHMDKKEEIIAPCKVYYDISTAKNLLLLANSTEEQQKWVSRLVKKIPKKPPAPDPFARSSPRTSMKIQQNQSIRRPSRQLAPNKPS
T5 sequence (Q9BQI3 whole entry): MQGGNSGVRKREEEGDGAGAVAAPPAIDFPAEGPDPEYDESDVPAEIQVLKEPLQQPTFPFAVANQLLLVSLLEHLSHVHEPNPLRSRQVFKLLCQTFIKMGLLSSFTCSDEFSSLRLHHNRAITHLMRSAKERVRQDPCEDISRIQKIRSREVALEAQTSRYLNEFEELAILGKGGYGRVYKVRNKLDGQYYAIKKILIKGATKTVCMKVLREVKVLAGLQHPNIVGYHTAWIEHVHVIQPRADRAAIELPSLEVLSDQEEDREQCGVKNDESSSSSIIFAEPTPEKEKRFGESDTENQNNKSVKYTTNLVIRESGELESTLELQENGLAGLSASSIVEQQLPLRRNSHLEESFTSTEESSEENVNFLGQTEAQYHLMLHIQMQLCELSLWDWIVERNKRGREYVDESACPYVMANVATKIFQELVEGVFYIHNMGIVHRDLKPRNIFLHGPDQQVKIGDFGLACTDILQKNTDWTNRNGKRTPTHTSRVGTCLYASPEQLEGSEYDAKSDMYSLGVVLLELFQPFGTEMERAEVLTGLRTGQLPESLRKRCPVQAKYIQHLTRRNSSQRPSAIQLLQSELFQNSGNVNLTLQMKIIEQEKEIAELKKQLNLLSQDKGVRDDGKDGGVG
T7 sequence (Q15208 whole entry): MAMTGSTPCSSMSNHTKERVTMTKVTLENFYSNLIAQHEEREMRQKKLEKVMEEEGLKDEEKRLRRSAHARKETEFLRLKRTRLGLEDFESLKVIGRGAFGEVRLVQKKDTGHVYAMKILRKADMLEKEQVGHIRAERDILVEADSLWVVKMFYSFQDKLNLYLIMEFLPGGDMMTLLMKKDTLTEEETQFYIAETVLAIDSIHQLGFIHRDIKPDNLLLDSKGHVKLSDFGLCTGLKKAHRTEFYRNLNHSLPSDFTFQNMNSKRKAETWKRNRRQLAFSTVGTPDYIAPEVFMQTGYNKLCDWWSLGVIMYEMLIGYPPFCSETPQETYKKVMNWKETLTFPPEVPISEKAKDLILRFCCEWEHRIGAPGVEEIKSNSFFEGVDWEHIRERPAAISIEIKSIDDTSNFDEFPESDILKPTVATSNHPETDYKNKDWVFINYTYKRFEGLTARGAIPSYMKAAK
T3 sequence (P49759 whole entry): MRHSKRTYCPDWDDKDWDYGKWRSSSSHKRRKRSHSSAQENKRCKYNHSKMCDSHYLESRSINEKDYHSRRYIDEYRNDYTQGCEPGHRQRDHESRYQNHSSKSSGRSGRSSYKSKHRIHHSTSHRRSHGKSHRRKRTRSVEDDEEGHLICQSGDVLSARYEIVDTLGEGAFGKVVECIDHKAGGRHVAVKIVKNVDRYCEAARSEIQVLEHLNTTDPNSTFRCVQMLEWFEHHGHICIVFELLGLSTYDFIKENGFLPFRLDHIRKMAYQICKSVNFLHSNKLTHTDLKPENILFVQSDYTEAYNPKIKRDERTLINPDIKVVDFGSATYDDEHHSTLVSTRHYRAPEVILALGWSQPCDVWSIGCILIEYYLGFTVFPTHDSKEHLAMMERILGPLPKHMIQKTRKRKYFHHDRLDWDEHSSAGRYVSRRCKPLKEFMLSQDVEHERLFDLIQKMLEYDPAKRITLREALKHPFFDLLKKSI

Row | Compound | remaining binding at 1 µM [1] [%] | remaining binding at 1 µM [2] [%] | remaining binding at 1 µM [3] [%] | remaining binding at 1 µM [4] [%] | remaining binding at 1 µM [5] [%] | remaining binding at 1 µM [6] [%] | remaining binding at 1 µM [7] [%] | remaining binding at 1 µM [8] [%] | remaining binding at 1 µM [9] [%] | remaining binding at 1 µM [10] [%]
1 | Clc1cc(NCC2CC2)c2ncc(-c3ccc4[nH]ncc4c3)n2n1 [compound 2, 6-Chloro-N-(cyclopropylmethyl)-3-(1H-indazol-5-yl)imidazo[1,2-b]pyridazin-8-amine] | 68 | 74 | 4 | 89 | 100 | 85 | 75 | 31 | 91 | 100
2 | O=C(CN1CCOCC1)N[C@H]1CC[C@H](Nc2cc(Cl)nn3c(-c4ccc5[nH]ncc5c4)cnc23)CC1 [compound 26] | 26 | 16 | 1.2 | 83 | 78 | 92 | 96 | 21 | 65 | 100
3 | CN1CCC(CNc2cc(Cl)nn3c(-c4cc5nc(Nc6ccccc6)[nH]c5cc4F)cnc23)CC1 [compound 31, 6-Chloro-3-(6-fluoro-2-(phenylamino)-1H-benzo[d]imidazol-5-yl)-N-((1-methylpiperidin-4-yl)methyl)imidazo[1,2-b]pyridazin-8-amine] | 76 | 42 | 16 | 100 | 78 | 100 | 86 | 100 | 93 | 100

Source: paper PMC6437697 (Journal of Medicinal Chemistry, 2019)
